Measurements as given in US12110533B2, “Stabilisation and isolation of extracellular nucleic acids” (Qiagen GmbH, priority 2011, dated 2024).
Peptide text beside a SMILES is read from it. * marks the point of attachment. Cbz = O=C(OCc1ccccc1)*; CH2Cl = ClC*; CH2F = FC*

Assays:
whole blood samples [1] = test: Chip gel electrophoresis of DNA isolated from plasma of stored whole blood (DNA size distribution, blood cell stability/DNA release); type: cell-based; conditions: for ladder-like pattern (release/fragmentation of genomic DNA): Example 1, 20 μM in 10 ml K2E whole blood, RT, day 3 and day 7, vs DMSO control and K2E blood; for genomic DNA release/fragmentation: Example 2, day 7, RT
Method: A test system was designed, wherein cell-containing biological samples, here whole blood samples, were incubated at room temperature (RT) for up to 6 or 7 days. Therein, the sample stabilizing properties of the additives of the present invention were tested on day 0, day 3 and day 6/7 the samples. The samples were processed according to the following protocols, where applicable (for details, see also the specific examples in the results section):
To separate the blood plasma from the whole blood, the blood samples were centrifuged for 15 min at 5000 rpm, and the obtained plasma samples were again centrifuged for 10 min at 16,000×g at 4° C.
(§1) The circulating, extracellular nucleic acids were purified from the obtained plasma samples using the QIAamp® Circulating NA Kit (according to the handbook). In brief: • 10 ml sample input; • lysis: 1 ml Proteinase K and 8 ml Buffer ACL (QIAGEN) • binding: 18 ml Buffer ACB (QIAGEN) • wash-steps: unchanged and according to handbook • elution in 60 μl Buffer AVE (QIAGEN)
4.1. Measurement of the blood cell stability/DNA release by the determination of DNA size distribution using a chip gel electrophoresis (2100 Bioanalyzer; Agilent Technologies; Inc., USA) according to manufacturer's instruction (see handbook Agilent DNA 7500 and DNA 12000 Kit Guide), but 1.5 μl instead of 1 μl sample were transferred to the wells.
The eluted circulating cell-free DNA was separated by size using chip gel electrophoresis (for details on the method see above, I, 4.1). […] The DMSO control and the K2E blood (not treated according to the teachings of the present invention) show the same ladder-like pattern of bands. This pattern occurs in samples where apoptosis takes place. During apoptosis, endonucleases degrade genomic DNA at inter-nucleosomal linker regions and produce DNA fragments of circa 180 bp or multiples of 180 bp. Thus, apoptosis occurs in samples which show a clear ladder-like pattern. Furthermore, the strength (darkness) of the pattern is decisive. The darker the bands, the more genomic DNA was released from the cells and thus contaminates the extracellular nucleic acid population.

whole blood samples [2] = test: 18S DNA duplex real time PCR assay: increase of ribosomal 18S DNA (ccfDNA) in plasma of stored whole blood; type: cell-based, human; conditions: for increase of ribosomal 18S DNA in plasma: Example 1, 20 μM in whole blood; for increase of ribosomal 18S DNA in plasma / increase of genomic DNA in plasma: within 7 days of storage at RT; for increase of genomic DNA in plasma: Example 2; for change of ccfDNA level in plasma (day X copies/day 0 copies): Example 8, RT up to 6 days, DHA 0.5 M, inositol 0.05 M, maltitol 0.01 M, mannitol
Method: A test system was designed, wherein cell-containing biological samples, here whole blood samples, were incubated at room temperature (RT) for up to 6 or 7 days. Therein, the sample stabilizing properties of the additives of the present invention were tested on day 0, day 3 and day 6/7 the samples.
as §1
4.2. DNA quantification with a real time PCR assay, sensitive for DNA degradation (target: 500 and 66 bp long ribosomal 18S DNA coding sequences).
(samples were diluted 1:10 before amplification)
Detection of ribosomal 18S DNA by quantitative real-time PCR, makes it possible to calculate the x-fold increase of DNA from day 0 to day 3 or 7 (calculation: division of day 3 (or 7) copies by day 0 copies).
The division of short amplicon copy number by long amplicon copy number (66 bp/500 bp) indicates whether the amount of detected short or long amplicons changes over time in a similar way. A decrease of this ratio implies a stronger release of longer rather than of shorter DNA molecules and can be interpreted as release of high molecular weight genomic DNA from blood cells.
On day 0, day 3 and day 6, replicates were processed as follows. […] The cleared plasma fraction was collected and the extracellular nucleic acids were isolated using the QIAamp Circulating nucleic acid kit (1 ml input material, 60 μl elution volume). […] Values that are close to 1 imply preserved levels of ccfDNA. The higher the value, the less stabilization is achieved.

fragmentin 2 = biological target: T1, fragmentin 2 (Rattus norvegicus, UniProt P18291); conditions: read-out: ID50 (the source's name); cited from earlier work
T1 sequence (P18291 21-248): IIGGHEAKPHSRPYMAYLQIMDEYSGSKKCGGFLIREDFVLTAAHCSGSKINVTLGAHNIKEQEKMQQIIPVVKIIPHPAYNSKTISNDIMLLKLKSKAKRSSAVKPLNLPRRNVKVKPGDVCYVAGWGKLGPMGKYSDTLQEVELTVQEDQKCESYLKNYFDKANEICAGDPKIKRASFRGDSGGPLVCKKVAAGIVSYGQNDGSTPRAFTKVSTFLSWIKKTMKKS

calpain II = biological target: T2, calpain II (Homo sapiens, UniProt P17655); conditions: irreversible inhibitor; cited from earlier work
T2 sequence (P17655 1-700): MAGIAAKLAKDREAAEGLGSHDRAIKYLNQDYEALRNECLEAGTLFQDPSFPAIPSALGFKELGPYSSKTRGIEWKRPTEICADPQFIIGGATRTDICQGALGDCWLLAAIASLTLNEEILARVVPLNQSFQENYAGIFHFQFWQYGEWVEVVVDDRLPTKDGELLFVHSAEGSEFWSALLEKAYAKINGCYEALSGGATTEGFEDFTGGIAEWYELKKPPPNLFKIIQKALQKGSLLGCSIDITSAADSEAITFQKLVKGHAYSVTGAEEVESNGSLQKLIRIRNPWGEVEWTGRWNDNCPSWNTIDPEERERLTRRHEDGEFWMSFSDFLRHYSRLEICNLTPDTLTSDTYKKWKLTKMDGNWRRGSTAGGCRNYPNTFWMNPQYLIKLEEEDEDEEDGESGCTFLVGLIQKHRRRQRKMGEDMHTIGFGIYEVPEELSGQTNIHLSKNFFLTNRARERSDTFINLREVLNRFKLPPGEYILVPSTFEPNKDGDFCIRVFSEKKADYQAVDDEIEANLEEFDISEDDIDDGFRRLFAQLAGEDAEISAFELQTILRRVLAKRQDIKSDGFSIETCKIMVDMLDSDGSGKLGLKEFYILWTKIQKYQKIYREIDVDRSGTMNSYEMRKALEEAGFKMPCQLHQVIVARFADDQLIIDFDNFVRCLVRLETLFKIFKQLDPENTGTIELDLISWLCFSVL
T2 sequence (P04632 1-268 partner): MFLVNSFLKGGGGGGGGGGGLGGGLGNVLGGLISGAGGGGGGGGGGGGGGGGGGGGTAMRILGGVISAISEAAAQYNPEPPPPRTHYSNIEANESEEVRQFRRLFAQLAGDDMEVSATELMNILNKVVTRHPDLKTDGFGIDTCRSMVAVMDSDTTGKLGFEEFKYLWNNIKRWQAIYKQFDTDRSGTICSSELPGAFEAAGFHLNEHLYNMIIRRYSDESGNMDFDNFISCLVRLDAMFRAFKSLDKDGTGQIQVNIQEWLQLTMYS

cathepsin L = cathepsin L (Homo sapiens, UniProt P07711); conditions: cited from earlier work
cathepsin L, sequence (P07711 114-333, species assumed): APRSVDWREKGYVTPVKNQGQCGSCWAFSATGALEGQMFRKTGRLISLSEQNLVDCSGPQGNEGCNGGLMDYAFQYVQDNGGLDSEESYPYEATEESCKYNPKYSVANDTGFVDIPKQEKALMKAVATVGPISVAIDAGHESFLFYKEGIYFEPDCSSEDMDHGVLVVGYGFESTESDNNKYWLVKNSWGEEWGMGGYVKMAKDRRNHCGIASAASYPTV

[3] = administered in rats in vivo; cited from earlier work

CC(C)C(NC(=O)c1ccc2ccccc2n1)C(=O)NC(CC(=O)O)C(=O)COc1c(F)cccc1F (stereo not drawn) [Q-VD-OPh, Quinoline-Val-Asp-CH2-OPH]
ladder-like pattern (release/fragmentation of genomic DNA) (whole blood samples [1]): significantly reduced ladder-like patterns | genomic DNA release/fragmentation (whole blood samples [1]; 1 μM with 21.4 mM glucose): significantly reduced | genomic DNA release/fragmentation (whole blood samples [1]; 4 μM with 21.4 mM glucose): effect is improved | increase of ribosomal 18S DNA in plasma (whole blood samples [2]): reduced increase of DNA | increase of genomic DNA in plasma (whole blood samples [2]; 1 μM with 21 mM glucose): only a minor increase | increase of genomic DNA in plasma (whole blood samples [2]; 4 μM with 21 mM glucose): ≤ 4 fold

Cbz-Val-Ala-Asp(OMe)-CH2F
ladder-like pattern (release/fragmentation of genomic DNA) (whole blood samples [1]): reduced ladder-like pattern | increase of ribosomal 18S DNA in plasma (whole blood samples [2]): more prominent on day 7

O[C@H]1[C@H](O)[C@@H](O)[C@H](O)[C@@H](O)[C@H]1O [inositol, Cyclohexane-1,2,3,4,5,6-geksol]
change of ccfDNA level in plasma (day X copies/day 0 copies) (whole blood samples [2]): suitable alternatives

CC(NC(=O)OCc1ccccc1)C(=O)NC(C)C(=O)NC(CC(=O)O)C(=O)CCl (stereo not drawn) [Granzyme B Inhibitor I, Z-Ala-Ala-Asp-CH2Cl] (Cbz-Ala-Ala-Asp-CH2Cl; configuration not given here)
IC50 (fragmentin 2): 300 nM

CC(C)C[C@H](NC(=O)OCc1ccccc1)C(=O)N[C@@H](CC(C)C)C(=O)N[C@@H](Cc1ccc(O)cc1)C(=O)CF [Calpain Inhibitor IV, Z-Leu-Leu-Tyr-CH2F] (Cbz-Leu-Leu-Tyr-CH2F)
k2 (calpain II): 28,900 M-1s-1). Also acts as an inhibitor of cathepsin L (k2 = | k2 (cathepsin L): 680,000 M-1s-1).

N=c1sc2c(n1CC(=O)c1ccc([N+](=O)[O-])cc1)CCCC2 [Pifithrin-α, ρ-Nitro]
more potent than Pifithrin-α in vivo [3]: 100-fold more potent than Pifithrin-α when adminstered in rats in

OCC(O)C(O)C(O)C(O)CO (stereo not drawn) [mannitol, Hexane-1,2,3,4,5,6-hexol]
change of ccfDNA level in plasma (day X copies/day 0 copies) (whole blood samples [2]): stabilization effects over 3 days

OC[C@@H](O)[C@@H](O[C@H]1O[C@H](CO)[C@@H](O)[C@H](O)[C@H]1O)[C@H](O)[C@@H](O)CO [maltitol, 4-O-α-D-Glucopyranosyl-D-glucitol]
change of ccfDNA level in plasma (day X copies/day 0 copies) (whole blood samples [2]): suitable alternatives
